Data as given in patent US20190038624A1 (priority 2017, published 2019).

Assays:
[1] = system: patient with probable multiple system atrophy; type: in vivo, human; details: single MSA patient, oral Nilotinib 200 mg
Text: A person who presented with inability to walk. The disease started 4 years ago with a slowing of their gait and tremors at rest in both hands. […] They had been experiencing dizziness, dysphagia during the past year, and urinary urgency during the previous six months.
Upon admission, the patient could not walk without assistance and needed intermittent bladder catheterization because of urinary incontinence. […] Informed consent was obtained from the patient and their family before treatment of oral Nilotinib 200 mg […]. The monthly monitoring included a physical and a neurological exam, an electrocardiogram, and complete blood count and chemistry.

[2] = system: patients with probable MSA; type: in vivo, human; details: oral 200 mg daily
Description: Five patients fulfilled the consensus criteria for “probable MSA” and received oral Nilotinib 200 mg daily for 24 weeks. Disease progression was monitored every 4 weeks by measuring the patient's motor and non-motor symptoms with the Unified Multiple System Atrophy Rating Scale (UMSARS). Mini Mental State Examination (MMSE) was used to screen for cognitive impairment. […] However, these AEs resolved with continued administration of the drug. […] Furthermore, there was a significant decline of 6.8 and 2.2 points in the UMSARS and UMSARS-II, respectively, compared to baseline (see FIG. 2). MMSE results were normal throughout treatment.

PD and DLB subjects = details: 24 weeks of treatment with 300 mg Nilotinib; cited from earlier work
[3] = average of five MSA patients, 24 weeks

## Cc1cn(-c2cc(NC(=O)c3ccc(C)c(Nc4nccc(-c5cccnc5)n4)c3)cc(C(F)(F)F)c2)cn1 [Nilotinib]
[1]; 24 weeks
  non-motor symptoms (swallowing, constipation, urinary function): significant improvement of non-motor symptoms
[1]; 24 weeks, could not walk without assistance upon admission
  walking ability at the end of the study: could walk slowly without assistance
[1]; 24 weeks, no hospitalization, resolved with continuous use
  nonserious adverse events: mild skin irritation, dizziness, and mild headache
[1]; week 24
  decrease on the UMSARS compared with baseline: 11 points
  decrease on the UMSARS-II compared with baseline: 6 points
[2]; [3]
  decline in the UMSARS compared to baseline: 6.8 points
  decline in the UMSARS-II compared to baseline: 2.2 points
[2]; five MSA patients, end of 24 weeks
  non-motor symptoms (swallowing, constipation, urinary function): improvement of non-motor symptoms
PD and DLB subjects
  decline in UPDRS I-IV: 11.1 points
